# Assays:
# [1] = Pharmacokinetic profile of Compound 100 in male Sprague-Dawley rats: plasma, hippocampus and cortex concentration after 30 mg/kg PO; assay type: in vivo; conditions: fasted, 1 hr post dose, mean
# Experimental: The mean plasma, hippocampus, and cortex concentrations at 1 hour were 19200 ng/mL, 674 ng/g, and 754 ng/g, respectively. The mean plasma, hippocampus, and cortex concentrations at 6 hours were 1780 ng/mL, 1385 ng/g, and 936 ng/g, respectively.
# [2] = Pharmacokinetic profile of Compound 100 versus non-deuterated D-serine in male Sprague-Dawley rats, 150 mg/kg PO; assay type: in vivo; conditions: fasted, plasma, mean
# Excerpt: (§1) The pharmacokinetic profile of Compound 100 was investigated in male Sprague-Dawley rats compared with that of non-deuterated D-serine. […] Plasma was collected and analyzed for Compound 100 and non-deuterated D-Serine. Additional blood was collected and analyzed for the full clinical chemistry profile.
# [3] = Nephrotoxicity of Compound 100 and non-deuterated D-serine in male Sprague-Dawley rats, 150 mg/kg PO (BUN, creatinine, GGT); assay type: in vivo
# Excerpt: as §1
# [4] = Nephrotoxicity comparison of Compound 100 and non-deuterated D-serine at doses from 150 mg/kg to 750 mg/kg; assay type: in vivo, rats
# [5] = biological target: T1, human NMDAR subunits GluN1 and GluN2A (Homo sapiens, UniProt Q05586); test: NMDA receptor activation in automated patch clamp system (ScreenPatch), HEK293 cells; assay type: cell-based; conditions: 0.003 to 10 μM, Compound 100 versus D-serine
# T1 construct: expressed in transfected cells; host or cells: HEK293
# Experimental: Peak current and steady state current were measured. The activity at the NMDA receptor was indistinguishable for the two compounds.
# [6] = Randomized single dose crossover plasma PK of Compound 100 versus D-serine in healthy volunteers; assay type: in vivo, human
# Experimental: Thirteen healthy volunteers between the ages of 18 to 55 were enrolled in the study. […] Period 1 dosing occurred within 14 days of screening. […] Similarly, in Period 2, the 2 subjects in the sentinel group received the alternate treatment after a 4-day washout and approximately 2 days prior to the remaining subjects receiving their Period 2 dose. […] Water consumption was restricted from 1 hour prior to dosing until 1 hour after dosing. Subjects fasted for approximately 3 hours after dosing and remained upright or semi-supine during this period. A meal was provided 3-4 hours after the dose. Meal times and contents were standardized until the last blood sample was collected for PK assessments. […] Plasma samples were stored in labeled tubes at approximately -80° C.
# [7] = Safety and tolerability in single dose crossover study in healthy volunteers; assay type: in vivo, human; conditions: single 0.25 g oral dose
# Excerpt: Thirteen healthy volunteers between the ages of 18 to 55 were enrolled in the study.
# Period 1 dosing occurred within 14 days of screening.
# [8] = Single Ascending Dose (SAD) study plasma PK in healthy volunteers; assay type: in vivo, human; conditions: for half-life / AUC(0-inf) / Cmax / Tmax: human, plasma; for Tmax: median
# Experimental: The 0.5, 2, 3, and 4 g doses were evaluated under fasted conditions (after an overnight fast) while the 1 g dose was evaluated under both fasted and fed conditions (within 30 minutes of consumption of a meal) in a crossover design. […] Blood samples for PK analysis were obtained at several time points after dose administration. Safety assessments included monitoring of adverse events and clinical laboratory testing including monitoring of kidney function.
# [9] = Multiple Ascending Dose (MAD) study plasma PK, 7 consecutive days; conditions: for AUC(0-inf) / AUC(0-t) / Cmax / Tmax: human, plasma, po
# Excerpt: The caloric content of the meal was in accordance with the FDA guidance for food-effect studies.
# [10] = Safety and tolerability in SAD and MAD studies; assay type: in vivo, human
# Experimental: The 0.5, 2, 3, and 4 g doses were evaluated under fasted conditions (after an overnight fast) while the 1 g dose was evaluated under both fasted and fed conditions (within 30 minutes of consumption of a meal) in a crossover design. […] Blood samples for PK analysis were obtained at several time points after dose administration. Safety assessments included monitoring of adverse events and clinical laboratory testing including monitoring of kidney function. Neurocognitive effects of CTP-692 using CogScreen® were also explored.
# [11] = dose escalation 150 mg/kg to 750 mg/kg
# [12] = human, plasma, single 0.25 g oral solution, fasted, mean, N = 11
# [13] = po, 0.5 g, 0.5 g single oral dose, fasted, arithmetic mean
# [14] = po, 1 g, 1 g (fed) single oral dose, arithmetic mean
# [15] = po, 1 g, 1 g single oral dose, fasted, arithmetic mean
# [16] = po, 2 g, 2 g single oral dose, fasted, arithmetic mean
# [17] = po, 3 g, 3 g single oral dose, fasted, arithmetic mean
# [18] = po, 4 g, 4 g single oral dose, fasted, arithmetic mean
structure (smiles),measurement,setting,value
"[2H][C@@](N)(CO)C(=O)O [Compound 100, (2R)-2-amino-2-deutero-3-hydroxy-propanoic acid]",Cortex concentration,[1],754 ng/g
same,Hippocampus concentration,[1],674 ng/g
same,Plasma concentration,[1],19200 ng/mL
same,AUCinf,[2],383 µg·h/mL
same,Cmax,[2],186000 ng/mL
same,Tmax,[2],0.667 h
same,levels of biomarkers of nephrotoxicity,[3],did not increase
same,"exposure as measured by AUC and Cmax, compared with non-deuterated D-serine",[4]; [11],greater
same,gross signs of nephrotoxicity,[4]; [11],not Compound 100
same,changes in BUN or creatinine,[4]; doses from 150 mg/kg to 750 mg/kg PO,minimal changes
same,activity at the NMDA receptor (peak current and steady state current),[5],indistinguishable
same,Tmax,"[6]; human, plasma, single 0.25 g oral solution, fasted, N = 11",1.5 h
same,AUC(0-inf),[6]; [12],38.7 µg·h/mL
same,Cmax,[6]; [12],4550 ng/mL
same,half-life,[6]; [12],18.3 h
same,plasma exposure compared to D-serine,[6]; single 0.25 g oral dose,increased plasma exposure
same,CL/F,"[6]; single 0.25 g oral solution, fasted, mean, N = 11",6.6 L/h
same,adverse events related to Compound 100,[7],mild headache (1 subject) and fatigue (2 subjects)
same,serious adverse events,[7],no serious adverse events were reported
same,tolerability,[7],generally well tolerated
same,CL/F,"[8]; 0.5 g single oral dose, fasted, arithmetic mean",6.17 L/h
same,CL/F,"[8]; 1 g (fed) single oral dose, arithmetic mean",5.99 L/h
same,CL/F,"[8]; 1 g single oral dose, fasted, arithmetic mean",6.28 L/h
same,CL/F,"[8]; 2 g single oral dose, fasted, arithmetic mean",6.56 L/h
same,CL/F,"[8]; 3 g single oral dose, fasted, arithmetic mean",6.68 L/h
same,CL/F,"[8]; 4 g single oral dose, fasted, arithmetic mean",6.69 L/h
same,half-life,"[8]; oral, SAD and MAD studies, human plasma, read-out: terminal t1/2 (converted)",~19 h
same,AUC(0-inf),[8]; [13],82.2 µg·h/mL
same,Cmax,[8]; [13],11000 ng/mL
same,half-life,"[8]; po, 0.5 g, 0.5 g single oral dose, fasted, arithmetic mean, read-out: t1/2 (converted)",15.9 h
same,Tmax,"[8]; po, 0.5 g, 0.5 g single oral dose, fasted",1 h
same,AUC(0-inf),[8]; [14],173 µg·h/mL
same,Cmax,[8]; [14],15300 ng/mL
same,half-life,"[8]; po, 1 g, 1 g (fed) single oral dose, arithmetic mean, read-out: t1/2 (converted)",17.9 h
same,Tmax,"[8]; po, 1 g, 1 g (fed) single oral dose",2 h
same,AUC(0-inf),[8]; [15],164 µg·h/mL
same,Cmax,[8]; [15],22300 ng/mL
same,half-life,"[8]; po, 1 g, 1 g single oral dose, fasted, arithmetic mean, read-out: t1/2 (converted)",19.2 h
same,Tmax,"[8]; po, 1 g, 1 g single oral dose, fasted",1 h
same,AUC(0-inf),[8]; [16],315 µg·h/mL
same,Cmax,[8]; [16],46300 ng/mL
same,half-life,"[8]; po, 2 g, 2 g single oral dose, fasted, arithmetic mean, read-out: t1/2 (converted)",20.2 h
same,Tmax,"[8]; po, 2 g, 2 g single oral dose, fasted",1 h
same,AUC(0-inf),[8]; [17],489 µg·h/mL
same,Cmax,[8]; [17],69100 ng/mL
same,half-life,"[8]; po, 3 g, 3 g single oral dose, fasted, arithmetic mean, read-out: t1/2 (converted)",20.6 h
same,Tmax,"[8]; po, 3 g, 3 g single oral dose, fasted",1 h
same,AUC(0-inf),[8]; [18],618 µg·h/mL
same,Cmax,[8]; [18],96500 ng/mL
same,half-life,"[8]; po, 4 g, 4 g single oral dose, fasted, arithmetic mean, read-out: t1/2 (converted)",18.4 h
same,Tmax,"[8]; po, 4 g, 4 g single oral dose, fasted",1 h
same,Accumulation,[9]; following 7 consecutive days of administration,minimal to modest
same,dose-exposure relationship,[9]; following single and multiple doses (at Day 7),linear
same,AUC(0-inf),[9]; 1 g,263 µg·h/mL
same,AUC(0-t),[9]; 1 g,175 µg·h/mL
same,Cmax,[9]; 1 g,25300 ng/mL
same,Tmax,[9]; 1 g,1.5 h
same,AUC(0-inf),[9]; 2 g,522 µg·h/mL
same,AUC(0-t),[9]; 2 g,333 µg·h/mL
same,Cmax,[9]; 2 g,52000 ng/mL
same,Tmax,[9]; 2 g,1 h
same,AUC(0-inf),[9]; 4 g,911 µg·h/mL
same,AUC(0-t),[9]; 4 g,539 µg·h/mL
same,Cmax,[9]; 4 g,70800 ng/mL
same,Tmax,[9]; 4 g,2 h
same,effects on kidney function (serum and urine kidney function parameters),[10]; SAD and MAD studies,no apparent Compound 100-related effects on kidney function
same,effects on other clinical laboratory parameters,[10]; SAD and MAD studies,no clinically significant Compound 100-related effects
same,most common treatment-related adverse event,[10]; SAD and MAD studies,headache
same,neurocognitive effects (CogScreen),"[10]; SAD and MAD studies, exploratory",no evidence of adverse effects on neurocognitive functioning
same,tolerability,"[10]; SAD and MAD studies, healthy volunteers",well-tolerated
same,Compound 100-related adverse events,"[10]; highest once-daily dose of 4 g, both studies",no Compound 100-related adverse events were reported

# From patent US20220313640A1 (Concert Pharmaceuticals, Inc., priority 2019, published 2022)
